We go through seven compounds from PMC10893103, “Cyclodextrin-Enabled Enantioselective Complexation Study of Cathinone Analogs” (Molecules, 2024).

For orientation: pKa means the negative logarithm of the acid dissociation constant.

Data set [1] in a line: pKa determination by CE-pH titration. The format is physicochemical. As to conditions: 25 mM Na2HPO4 / 25 mM Na2B4O7 buffers, pH 7–10, 25 °C. The text has this:
CE is a widely used technique for the analysis of charged compounds; thus, the acid-base properties and the pKa of the analyte are crucial in CE method development. Furthermore, the protonation state of compounds has a decisive influence on both their behavior in the body and their affinity for CDs. […] However, it has the disadvantage that its reproducibility is less than that of conventional pH potentiometry; thus, the results of CE-pH titration should be confirmed by independent method (potentiometry, NMR-pH titration).
In order to determine the pKa of the five cathinone analogs, CE-pH titration was applied, in which the purpose was to register the effective mobility changes as a function of pH. As the five tested compounds contain secondary or tertiary amino groups, the pH range tested was pH 7–10, applying Na2HPO4 -Na2B4O7 buffers, where the appropriate pH was adjusted with hydrochloric acid. At a given pH, the mobility is determined by the sum of the mobility of the protonated and deprotonated forms:(1) μpH=μLxL+μHLxHL=μL+μHLKH^+/1+KH^+ where the μpH is the mobility of the compound at the given pH; μL and μHL are the mobilities of the deprotonated and protonated forms, respectively; xL and xHL are the mole fractions of the deprotonated and protonated forms, respectively; and K is the protonation constant. Plotting the μpH data against pH gives the titration curves from which the protonation constant can be calculated according to Equation (1).

The nature of data set [2]: Affinity capillary electrophoresis (ACE), pH 7.4. As to conditions: 30 mM phosphate buffer pH 7.4, 25 °C, 15 kV. In short, it runs like this:
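Mobility-shift ACE of cathinone analogues with cyclodextrins (0.25–20 mM in BGE) in 30 mM phosphate pH 7.4, 25 °C, fused-silica capillary, 15 kV, UV 215 nm, DMSO as EOF marker. Mobilities obtained by HVL peak fitting; complex stability constants corrected for viscosity and ionic strength.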

The nature of data set [3]: Affinity capillary electrophoresis (ACE), pH 4.5. As to conditions: 20 mM acetate buffer pH 4.5, 25C, 15 kV. The text has this: The simplest way to determine the mobility is from the migration times (tmax) read from the electropherograms from which the apparent mobility could be calculated, but more accurate mobility values could be obtained by the determination with the Haarhoff–van der Linde (HVL) function based on Equation (2). (2) HVLδ(t;a0,a1,a2,a3δ)=a0/a2a3δ2πexp[−1/2(t−a1/a2)^2]/1/exp(a3δ)−1+1/2[1+erf(t−a1/2a2)] where a0 is the area of the HVL function, a1 is the position of the Gaussian component, a2 is the standard deviation of the Gaussian component, and a3δ is the peak shape distortion. The application of the HVL function is necessary in the case of accurate ACE measurements because, in several cases, the peaks are distorted due to the complex formation, which makes reading the migration times and calculating the mobility more difficult and imprecise.
The most popular technique for quantifying the analyte–ligand interaction with CE is mobility shift ACE. This technique involves varying the background electrolyte’s ligand concentrations while introducing a constant volume of the analyte and an EOF marker into the capillary. The analyte–ligand equilibrium is assumed to happen before the separation is complete, requiring fast complex formation kinetics. Typical ligand concentrations are 1–2 orders of magnitude greater than the analyte. The following equation describes the observed mobility as a function of the interaction with the following analyte ligand:(3) μ=μfff+μcfc where μ is the observed mobility, μf and μc are the electrophoretic mobility of the free and complexed analyte, and ff and fc are the free and ligand-bound fractions of the analyte.
Assuming a 1:1 binding stoichiometry, the effective mobility (μeff, calculated by correcting with the EOF marker mobility) can be expressed as (4) μeff=μfK+μc[L]/K+[L] where K is the equilibrium dissociation constant and [L] is the ligand concentration. The apparent complex stability constant (K) can be calculated using several methods, e.g., the X-reciprocal method with linear fitting, but non-linear curve fitting based on Equation (4) is more accurate. A hyperbolic growing or decline curve is obtained, and K could be determined by plotting the effective mobility as a function of the [L] (e.g., CD concentration) in the background electrolyte. The CEval software enables faster and simpler evaluation of electropherograms and further data processing to determine the stability constants of complexes with a 1:1 stoichiometric ratio [27].
During the ACE measurement series, the CD concentration is increased whilst injecting a constant amount of the cathinone derivatives and the EOF marker DMSO. The complex stability calculations were conducted with the CEval program applying the HVL function to eliminate the effect of electromigration dispersion on migration time for exact mobility and, thus complex stability constant determination. Viscosity correction and ionic strength correction were applied. […]

Data set [4] in a line: pKa determination by potentiometry. The format is physicochemical. Conditions: aqueous solution; I = 0.15 M KCl, 25.0 °C. How it is done: The protonation constants were confirmed by potentiometry using a GLpKa instrument (Sirius, Forest Row, UK) equipped with a combination Ag/AgCl pH electrode. The four-parameter technique (Four PlusTM method) was used for electrode calibration. The titrations were carried out at constant ionic strength (I = 0.15 M KCl) and temperature (T = 25.0 ± 0.5 °C) under a nitrogen atmosphere. An amount of 10 ml of a ~1 mM aqueous solution of the analytes (4-MEC, MDPV) was pre-acidified to pH 2.0 with 0.5 M HCl and then titrated with 0.5 M KOH to pH 12.2. Three parallel measurements were carried out. The pKa values were calculated using the RefinementProTM software (Sirius, Forest Row, UK).

The conditions of data set [5]: CE-pH titration; cited from earlier work.

Read-outs that look alike come from different tables or passages of the source.

Take `CNC(C)C(=O)c1ccc(F)cc1` (racemic) [Flephedrone, (±)-1-(4-fluorophenyl)-2-(methylamino)propan-1-one]: the pKa in data set [1] was 8.56 ± 0.01.
`CCC(NC)C(=O)c1ccc2c(c1)OCO2` (racemic) [Butylone, (±)-1-(1,3-benzodioxol-5-yl)-2-(methylamino)-butan-1-one] registered a pKa in data set [1] of 8.64 ± 0.01.
As for `CC(=O)O[C@@H]1[C@@H](OC(C)=O)[C@H]2O[C@H]3[C@H](OC(C)=O)[C@@H](OC(C)=O)[C@@H](O[C@H]4[C@H](OC(C)=O)[C@@H](OC(C)=O)[C@@H](O[C@H]5[C@H](OC(C)=O)[C@@H](OC(C)=O)[C@@H](O[C@H]6[C@H](OC(C)=O)[C@@H](OC(C)=O)[C@@H](O[C@H]7[C@H](OC(C)=O)[C@@H](OC(C)=O)[C@@H](O[C@H]8[C@H](OC(C)=O)[C@@H](OC(C)=O)[C@@H](O[C@@H]1[C@@H](COS(=O)(=O)O)O2)O[C@@H]8COS(=O)(=O)O)O[C@@H]7COS(=O)(=O)O)O[C@@H]6COS(=O)(=O)O)O[C@@H]5COS(=O)(=O)O)O[C@@H]4COS(=O)(=O)O)O[C@@H]3COS(=O)(=O)O` [HDAS-β-CD, heptakis-(2,3-O-diacethyl, 6-O-sulfo)-β-CD], in data set [2], the “4-MEC–CD complex stability constant, Kstab2 (second migrating enantiomer)” value was 830 ± 45 M⁻¹; the “4-MEC–CD complex stability constant, Kstab/Kstab1 (unresolved or first migrating enantiomer)” value was 560 ± 40 M⁻¹; the “Butylone–CD complex stability constant, Kstab/Kstab1 (unresolved or first migrating enantiomer)” value stood at 725 ± 20 M⁻¹; the “Flephedrone–CD complex stability constant, Kstab2 (second migrating enantiomer)” value was found to be 360 ± 75 M⁻¹. Also, in data set [2], the “Flephedrone–CD complex stability constant, Kstab/Kstab1 (unresolved or first migrating enantiomer)” value came to 110 ± 37 M⁻¹; the “MDPV–CD complex stability constant, Kstab2 (second migrating enantiomer)” value was 340 ± 30 M⁻¹; the “MDPV–CD complex stability constant, Kstab/Kstab1 (unresolved or first migrating enantiomer)” value came to 360 ± 55 M⁻¹; the “Mephedrone–CD complex stability constant, Kstab2 (second migrating enantiomer)” value was 730 ± 40 M⁻¹. The “Mephedrone–CD complex stability constant, Kstab/Kstab1 (unresolved or first migrating enantiomer)” value in data set [2] was 450 ± 60 M⁻¹. In addition, in data set [3], the “Flephedrone–CD complex stability constant Kstab1 (first migrating enantiomer)” value came to 470 ± 40 M⁻¹; the “Flephedrone–CD complex stability constant, Kstab2 (second migrating enantiomer)” value is 660 ± 55 M⁻¹; the “MDPV–CD complex stability constant Kstab1 (first migrating enantiomer)” value worked out at 800 ± 50 M⁻¹; the “MDPV–CD complex stability constant, Kstab2 (second migrating enantiomer)” value stood at 960 ± 80 M⁻¹.
In the case of `CCCC(C(=O)c1ccc2c(c1)OCO2)N1CCCC1` (racemic) [MDPV, (±)-1-(benzo[d]-[1, 3]-dioxol-5-yl)-2-(pyrrolidin-1-yl)pentan-1-one], the results for the pKa in data set [1], in data set [4] and in data set [5] were 9 ± 0.02, 9.05 ± 0.04 and 9.13, respectively.
Regarding `CO[C@@H]1[C@@H](OC)[C@H]2O[C@H]3[C@H](OC)[C@@H](OC)[C@@H](O[C@H]4[C@H](OC)[C@@H](OC)[C@@H](O[C@H]5[C@H](OC)[C@@H](OC)[C@@H](O[C@H]6[C@H](OC)[C@@H](OC)[C@@H](O[C@H]7[C@H](OC)[C@@H](OC)[C@@H](O[C@H]8[C@H](OC)[C@@H](OC)[C@@H](O[C@@H]1[C@@H](COS(=O)(=O)O)O2)O[C@@H]8COS(=O)(=O)O)O[C@@H]7COS(=O)(=O)O)O[C@@H]6COS(=O)(=O)O)O[C@@H]5COS(=O)(=O)O)O[C@@H]4COS(=O)(=O)O)O[C@@H]3COS(=O)(=O)O` [HDMS-β-CD, heptakis-(2,3-O-dimethyl, 6-O-sulfo)-β-CD], the “MDPV–CD complex stability constant, Kstab/Kstab1 (unresolved or first migrating enantiomer)” value in data set [2] came out at 915 ± 265 M⁻¹. In data set [3], the “4-MEC–CD complex stability constant Kstab1 (first migrating enantiomer)” value came to 170 ± 15 M⁻¹; the “4-MEC–CD complex stability constant, Kstab2 (second migrating enantiomer)” value was 190 ± 15 M⁻¹; the “Butylone–CD complex stability constant Kstab1 (first migrating enantiomer)” value stood at 150 ± 10 M⁻¹; the “Butylone–CD complex stability constant, Kstab2 (second migrating enantiomer)” value is 180 ± 12 M⁻¹. For the same compound, in data set [3], the “Flephedrone–CD complex stability constant Kstab1 (first migrating enantiomer)” value came to 250 ± 7 M⁻¹; the “Flephedrone–CD complex stability constant, Kstab2 (second migrating enantiomer)” value worked out at 235 ± 20 M⁻¹; the “MDPV–CD complex stability constant Kstab1 (first migrating enantiomer)” value is 160 ± 15 M⁻¹; the “MDPV–CD complex stability constant, Kstab2 (second migrating enantiomer)” value was determined as 175 ± 12 M⁻¹. Also, in data set [3], the “Mephedrone–CD complex stability constant Kstab1 (first migrating enantiomer)” value is 205 ± 20 M⁻¹ and the “Mephedrone–CD complex stability constant, Kstab2 (second migrating enantiomer)” value amounted to 205 ± 15 M⁻¹.
Regarding `CCNC(C)C(=O)c1ccc(C)cc1` (racemic) [4-MEC, (±)-2-(ethylamino)-1-(4-methylphenyl)propan-1-one], the values for the pKa in data set [1] and in data set [4] were 8.81 ± 0.02 and 8.85 ± 0.04, respectively.
For `CNC(C)C(=O)c1ccc(C)cc1` (racemic) [Mephedrone, (±)-2-(methylamino)-1-(4-methylphenyl)propan-1-one], the pKa in data set [1] was 8.61 ± 0.01; in data set [5], 8.82.
